Results published in publication PMC8780978, “Antiplatelet and Antithrombotic Effects of Isaridin E Isolated from the Marine-Derived Fungus via Downregulating the PI3K/Akt Signaling Pathway” (Marine Drugs, 2021).
Where a SMILES comes first, the peptide text is derived from it. [ ]: non-standard residue; d: D form. ξ: configuration not given here. ξLac(3-iPr) = CC(C)CC(O)C(=O)O; NMeV = CN[C@H](C(=O)O)C(C)C; βAla = NCCC(=O)O

Assays:
[1] = test system: washed mouse platelets; test: ADP-induced platelet aggregation (light transmission aggregometry); format: cell-based; details: ADP 5 μM; for ADP-induced maximum platelet aggregation, % of vehicle control: 30 min pretreatment
Description: (§1) Washed platelets were prepared as previously described by Zhongren Ding et al.. Whole blood was collected from the abdominal aorta using a syringe containing 3.8% sodium citrate (9:1, V/V) as an anticoagulant. Citrated blood (2 mL) was centrifuged at room temperature at 300× g for 2 min to obtain platelet-rich plasma (PRP). Platelets were obtained by the further centrifugation of PRP at 700× g for 2 min, and resuspended in Tyrode’s buffer (138 mM of NaCl, 2.7 mM of KCl, 1 mM of MgCl2, 3 mM of NaH2PO4, 5 mM of glucose, 10 mM of HEPES, pH 7.4) with 0.02 U/mL apyrase (A6410, Sigma-Aldrich, St. Louis, MO, USA) to a density of 3 × 10^8 of platelets/mL for use.
(§2) The platelet aggregation and release assay were performed as previously reported. Washed mouse platelets were treated with isaridin E (6.25, 12.5, 25, 50, 100, or 200 μM) or vehicle or clopidogrel (20 μM) at 37 °C for 30 min, followed by stimulation with ADP (01905, Sigma-Aldrich, St. Louis, MO, USA, 5 μM), collagen (C7661, Sigma-Aldrich, St. Louis, MO, USA, 1 μg/mL) or thrombin (T6884, Sigma-Aldrich, St. Louis, MO, USA, 0.02 U/mL). The platelet aggregation was assessed using a lumi-aggregometer (700-2, Chrono-Log, Havertown, PA, USA) with a stirring speed of 1200 rpm at 37 °C. The release of ATP was simultaneously monitored using Luciferin/luciferase reagent (395, Chrono-Log, Havertown, PA, USA). Aggregation traces and ATP release traces were monitored continuously for at least 10 min.

[2] = Coagulation parameters (APTT, PT, TT, FIB) after single intragastric dose; format: in vivo, mice; details: 3 h
Description: Mice were intragastrically administrated with a single dose of isaridin E (100 mg/kg) or vehicle at 3 h before anesthesia. Whole blood was drawn from the abdominal aorta and collected in K2EDTA anticoagulant tubes to evaluate the hematologic parameters with an automatic hematology analyzer (BC-2800 vet, Mindray, Shenzhen, China). The citrated blood was centrifuged at 1500× g (25 °C) for 15 min to obtain the platelet-poor plasma (PPP). PPP was then used to measure the coagulation parameters, including ATPP, PT, TT, and FIB, with an automated coagulation analyzer (RAC-030, Rayto, Shenzhen, China).

[3] = test system: washed mouse platelets; test: ADP-induced platelet activation, CD62p surface expression by flow cytometry; format: cell-based; details: 30 min, then 50 μM ADP 5 min, vehicle 35.6 ± 1.7%
Description: as §1
Washed mouse platelets were pretreated with vehicle or different concentrations of isaridin E for 30 min at 37 °C, followed by stimulation with 50 μM ADP for 5 min. Platelets were then stained with FITC-conjugated anti-CD41 antibody (133904, Biolegend, San Diego, CA, USA) and PE-conjugated anti-CD62p antibody (148306, Biolegend, San Diego, CA, USA) for 20 min at 25 °C in the dark. Then, platelets were fixed in 1% paraformaldehyde solution and analyzed with a CytoFLEX flow cytometer (Beckman Coulter, Brea, CA, USA).

[4] = test system: PI3K; test: ADP-induced phosphorylation of PI3K, Western blot; format: cell-based, human; details: 50 μM, Meg-01 cells
Description: Western blotting was performed as described in our previous study. Meg-01 cells were lysed with protein lysis buffer (P0013, Beyotime Biotechnology, Haimen, China) containing a protease inhibitor cocktail (539131, Millipore, Billerica, MA, USA) and phosphatase inhibitor cocktail (K1012, APExBIO, Houston, TX, USA). The samples (20 μg) were then separated by 8% SDS-PAGE gel and transferred onto PVDF membranes. The PDVF membranes were incubated with primary antibodies at 4 °C for 12 h. After incubating with the appropriate HRP-conjugated secondary antibodies (7076, 7074, Cell Signaling Technology, Danvers, MA, USA), blots were detected with chemiluminescent HRP substrate (P90719, Millipore, Billerica, MA, USA) using the ChemiDoc XRS+ system (BIO-RAD, Hercules, CA, USA). Primary antibodies against the following antigens were listed: PI3K (4257, Cell Signaling Technology, Danvers, MA, USA), Phospho-PI3K (ab226842, Abcam, Cambridge, UK), Akt (4691, Cell Signaling Technology, Danvers, MA, USA), Phospho-Akt (4056, Cell Signaling Technology, Danvers, MA, USA), and β-actin (66009-1, Proteintech, Rosemont, IL, USA).

[5] = test system: washed mouse platelets; test: LDH (lactate dehydrogenase) release cytotoxicity assay; format: cell-based; details: for LDH Release (%): 37 °C, 30 min, n = 6
From the text: We first examined whether isaridin E has cytotoxic effects on washed mouse circulating platelets using the LDH (lactate dehydrogenase) cytotoxicity assay kit. Destruction of the cell membrane caused by apoptosis or necrosis leads to the release of enzymes in the cytoplasm into the culture medium, including LDH, with stable enzyme activity. Therefore, the quantitative analysis of the percentage of LDH leakage from the platelets is commonly used to evaluate the cytotoxic effects of tested compounds, and LDH > 10% was considered cytotoxic. […] Next, we tested whether treatment with isaridin E for 3 h (a single intragastric administration at 100 mg/kg) affects hematological and coagulation parameters in vivo.
as §1
The possible cytotoxic effect of isaridin E on mouse platelets was assessed with the LDH Cytotoxicity Assay Kit (C0016, Beyotime Biotechnology, Haimen, China). Washed mouse platelets were pretreated with vehicle or different concentrations of isaridin E ([…], 12.5, 25, 50, 100, 200, or 400 μM) at 37 °C for 30 min, and then collected for detection following the manufacturer’s instructions. The cytotoxic effects were determined using the percentage of LDH leakage released from the platelets (% LDH release).

[6] = test system: washed mouse platelets; test: ADP-induced platelet ATP release (luciferin/luciferase); format: cell-based; details: ADP 5 μM
Description: as §1, §2

[7] = test system: human neutrophils; set-up: method as in PMID 23822585; details: cited from earlier work
[8] = 100 mg/kg single oral gavage, n = 5 mice

Compound: CC(C)CC1OC(=O)CCNC(=O)[C@H](C(C)C)N(C)C(=O)[C@H](C(C)C)N(C)C(=O)[C@H](Cc2ccccc2)NC(=O)[C@@H]2CCCN2C1=O (stereo partly drawn) [Isaridin E, cyclo-[(OH) (S)-HMPA^1-L-Pro^2-L-Phe^3-N-Me-L-Val^4-N-Me-L-Val^5-β-Ala^6(CO)]] (cyclo(F[NMeV][NMeV][βAla][ξLac(3-iPr)]P))
- ADP-induced maximum platelet aggregation, % of vehicle control ([1]; 12.5 μM): 75.6 ± 2.6%
- ADP-induced maximum platelet aggregation, % of vehicle control ([1]; 25 μM): 55.7 ± 4.8%
- ADP-induced maximum platelet aggregation, % of vehicle control ([1]; 50 μM): 26.6 ± 3.5%
- reduction of ADP-induced platelet aggregation versus vehicle control ([1]; 50 μM, extent similar to clopidogrel (20 μM)): 73.4 ± 3.5%
- ADP-induced maximum platelet aggregation, % of vehicle control ([1]; 100 μM): 15.6 ± 2.9%
- ADP-induced maximum platelet aggregation, % of vehicle control ([1]; 200 μM): 8.1 ± 0.8%
- IC50 ([1]; Mus musculus, Platelet, read-out: IC50 inhibiting ADP-induced platelet aggregation): 26.1 ± 2.9 µM
- effect on general coagulation (APTT, TT, PT, FIB) ([2]; 100 mg/kg single intragastric administration): no obvious effects
- ATPP [2, 8]: 32.4 ± 1.0 s
- FIB (fibrinogen) [2, 8]: 3.1 ± 0.1 g/L
- PT (prothrombin time) [2, 8]: 12.1 ± 0.4 s
- TT (thrombin time) [2, 8]: 14.0 ± 0.8 s
- percentage of CD62p expression on the platelet surface ([3]; 25 μM): 29.6 ± 1.0%
- percentage of CD62p expression on the platelet surface ([3]; 50 μM): 16.0 ± 1.4%
- percentage of CD62p expression on the platelet surface ([3]; 100 μM): 8.4 ± 1.0%
- ADP-induced phosphorylation of PI3K ([4]; 30 min, ADP 5 μM 5 min): significantly suppressed
- total protein expression of PI3K [4]: without altering
- cytotoxicity on washed platelets ([5]; 6.25-400 μM, LDH > 10% considered cytotoxic): no obvious cytotoxicity
- LDH Release (%) ([5]; isaridin E 6.25 μM): 0.86 ± 0.03%
- LDH Release (%) ([5]; isaridin E 12.5 μM): 0.89 ± 0.04%
- LDH Release (%) ([5]; isaridin E 25 μM): 0.88 ± 0.03%
- LDH Release (%) ([5]; isaridin E 50 μM): 0.86 ± 0.03%
- LDH Release (%) ([5]; isaridin E 100 μM): 0.88 ± 0.04%
- LDH Release (%) ([5]; isaridin E 200 μM): 0.84 ± 0.02%
- LDH Release (%) ([5]; isaridin E 400 μM): 0.85 ± 0.02%
- ADP-induced platelet ATP release, % of vehicle control ([6]; 6.25 μM): 60.7 ± 7.9%
- ADP-induced platelet ATP release, % of vehicle control ([6]; 12.5 μM): 31.7 ± 4.8%
- IC50 ([6]; Mus musculus, Platelet, read-out: IC50 inhibiting ADP-induced platelet ATP release): 7.9 ± 1.1 µM
- cytotoxicity in human neutrophils [7]: without cytotoxicity
- elastase release induced by FMLP ([7]; human neutrophils): inhibiting
- superoxide anion generation induced by FMLP ([7]; human neutrophils): inhibiting
